Reference: patent US10501449B2 (priority 2018, dated 2019)

Molecular target: hROMK (human Kir1.1) (Homo sapiens (Human), UniProt P48048)
Test: cell-based
Conditions: CHO T-Rex hROMK stable cell line; thallium flux; 10-point concentration response curve; read-out: Human ROMK Th Flux IC50

Sequence of hROMK (human Kir1.1) (P48048 whole entry): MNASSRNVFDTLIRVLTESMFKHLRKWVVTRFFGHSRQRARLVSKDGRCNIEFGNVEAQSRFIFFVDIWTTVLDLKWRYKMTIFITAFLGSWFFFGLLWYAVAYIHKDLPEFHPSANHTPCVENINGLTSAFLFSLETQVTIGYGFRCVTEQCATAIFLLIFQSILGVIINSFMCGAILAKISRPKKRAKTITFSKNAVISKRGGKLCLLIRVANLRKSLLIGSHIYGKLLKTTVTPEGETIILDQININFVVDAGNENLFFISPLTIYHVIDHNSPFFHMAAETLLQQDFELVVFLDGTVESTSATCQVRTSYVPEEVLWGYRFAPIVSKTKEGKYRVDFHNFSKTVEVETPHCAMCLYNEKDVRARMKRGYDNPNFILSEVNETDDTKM

SMILES	IC50 [nM]
Cc1cc(-n2cc(C(O)CN3CCO[C@H](c4ccc5c(c4C)COC5=O)C3)cn2)ncc1C#N (single isomer, unassigned) [Example 18-I]	870
Cc1cc(N2CC(CN3CCN[C@H](c4ccc5c(c4C)COC5=O)C3)OC2=O)ncc1C#N (single isomer, unassigned) [Example 160-I]	130
COc1cc(-n2cc(CN3CC(c4ccc5c(c4C)COC5=O)NC(C(C)O)C3)cn2)ncc1C#N (single isomer, unassigned) [Example 204-I, 6-(4-((3-(1-hydroxyethyl)-5-(4-methyl-1-oxo-1,3-dihydroisobenzofuran-5-yl)piperazin-1-yl)methyl)-1H-pyrazol-1-yl)-4-methoxynicotinonitrile]	220
Cc1cc(-n2cc(CN3CC(F)C(c4ccc5c(c4C)COC5=O)C3)cn2)ncc1C#N (single isomer, unassigned) [Example 212-II, 6-(4-((3-fluoro-4-(4-methyl-1-oxo-1,3-dihydroisobenzofuran-5-yl)pyrrolidin-1-yl)methyl)-1H-pyrazol-1-yl)-4-methylnicotinonitrile]	97
Cc1cc(-n2cc(CN3CC(c4ccc5c(c4C)COC5=O)NC(C(C)(C)O)C3)cn2)ncc1C#N (single isomer, unassigned) [Example 213-I, 6-(4-((3-(2-hydroxypropan-2-yl)-5-(4-methyl-1-oxo-1,3-dihydroisobenzofuran-5-yl)piperazin-1-yl)methyl)-1H-pyrazol-1-yl)-4-methynicotinonitrile]	1200
CC(=O)NC1CCN(Cc2cnn(-c3cc(C)c(C#N)cn3)c2)CC1c1ccc2c(c1C)COC2=O (single isomer, unassigned) [Example 248-I, N-(1-((1-(5-cyano-4-methylpyridin-2-yl)-1H-pyrazol-4-yl)methyl)-3-(4-methyl-1-oxo-1,3-dihydroisobenzofuran-5-yl)piperidin-4-yl)acetamide]	1500
CC(=O)NC1CC(c2ccc3c(c2C)COC3=O)CN(Cc2cnn(-c3cc(C)c(C#N)cn3)c2)C1 (single isomer, unassigned) [Example 257-I, N-(1-((1-(5-cyano-4-mehtylpyridin-2-yl)-1H-pyrazol-4-yl)methyl)-5-(4-methyl-1-oxo-1,3-dihydroisobenzofuran-5-yl)piperidin-3-yl)acetamide]	1400
CNC(=O)OC1CCN(Cc2cnn(-c3cc(C)c(C#N)cn3)c2)CC1c1ccc2c(c1C)COC2=O (single isomer, unassigned) [Example 258-I, 1-((1-(5-cyano-4-methylpyridin-2-yl)-1H-pyrazol-4-yl)methyl)-3-(4-methyl-1-oxo-1,3-dihydroisobenzofuran-5-yl)piperidin-4-yl methylcarbamate]	250
Cc1cc(-c2nnc(CN3CC(c4ccc5c(c4C)COC5=O)NC(C(F)F)C3)o2)ncc1C#N (single isomer, unassigned) [Example 273-I, 6-(5-((3-(difluoromethyl)-5-(4-methyl-1-oxo-1,3-dihydroisobenzofuran-5-yl)piperazin-1-yl)methyl)-1,3,4-oxadiazol-2-yl)-4-methylnicotinonitrile]	720
Cc1cc(-n2cc(CN3CCO[C@@H](c4ccc5c(c4C)COC5=O)C3)cn2)ncc1C#N [Example 1-II, (S)-4-methyl-6-(4-((2-(4-methyl-1-oxo-1,3-dihydroisobenzofuran-5-yl)morpholino)methyl)-1H-pyrazol-1-yl) nicotinonitrile]	800
Cc1c(C2CN(Cc3cnn(-c4ccc5oc(=O)n(C)c5c4)c3)CCC2(F)F)ccc2c1COC2=O (stereo not shown) [Example 4, 5-(4-((4,4-difluoro-3-(4-methyl-1-oxo-1,3-dihydroisobenzofuran-5-yl)piperidin-1-yl)methyl)-1H-pyrazol-1-yl)-3-methylbenzo[d]oxazol-2(3H)-one]	640
Cc1cc(-n2cc(CN3CCC(F)(F)C(c4ccc5c(c4C)COC5=O)C3)cn2)ncc1C#N (stereo not shown) [Example 5, 6-(4-((4,4-difluoro-3-(4-methyl-1-oxo-1,3-dihydroisobenzofuran-5-yl)piperidin-1-yl)methyl)-1H-pyrazol-1-yl)-4-methylnicotinonitrile]	270
Cc1ncc(-n2cc(CN3CCO[C@H](c4ccc5c(c4C)COC5=O)C3)cn2)s1 [Example 7-I, (R)-4-methyl-5-(4-((1-(2-methylthiazol-5-yl)-1H-pyrazol-4-yl)methyl)morpholin-2-yl) isobenzofuran-1(3H)-one]	1000
Cc1c([C@@H]2CN(Cc3cnn(-c4cc(C5CC5)c(C#N)cn4)c3)CCO2)ccc2c1COC2=O [Example 8-I, (R)-4-cyclopropyl-6-(4-((2-(4-methyl-1-oxo-1,3-dihydroisobenzofuran-5-yl)morpholino)methyl)-1H-pyrazol-1-yl)nicotinonitrile]	280
Cc1cc(-n2cc(CN3C[C@@H](c4ccc5c(c4C)COC5=O)OCC3=O)cn2)ncc1C#N [Example 10-I, (R)-4-methyl-6-(4-((2-(4-methyl-1-oxo-1,3-dihydroisobenzofuran-5-yl)-5-oxomorpholino)methyl)-1H-pyrazol-1-yl)nicotinonitrile]	620
Cc1c([C@@H]2CN(Cc3nnc(-c4ccc(C#N)cn4)o3)CCO2)ccc2c1COC2=O [Example 12-I, (R)-6-(5-((2-(4-methyl-1-oxo-1,3-dihydroisobenzofuran-5-yl)morpholino)methyl)-1,3,4-oxadiazol-2-yl)nicotinonitrile]	530

SMILES	IC50 [nM]
Cc1cc(-c2nnc(CN3CCN[C@H](c4ccc5c(c4C)COC5=O)C3)o2)ncc1C#N [Example 13-I, (R)-4-methyl-6-(5-((3-(4-methyl-1-oxo-1,3-dihydroisobenzofuran-5-yl)piperazin-1-yl)methyl)-1,3,4-oxadiazol-2-yl)nicotinonitrile]	110
COc1cc(-c2ccc(CN3C[C@@H](c4ccc5c(c4C)COC5=O)OC3=O)cn2)ncc1C#N [Example 17-I, (R)-4-methoxy-5′-((5-(4-methyl-1-oxo-1,3-dihydroisobenzofuran-5-yl)-2-oxooxazolidin-3-yl)methyl)-[2,2′-bipyridine]-5-carbonitrile]	900
Cc1c([C@@H]2CN(Cc3cnc(-c4ccc5oc(=O)n(C)c5c4)s3)CCO2)ccc2c1COC2=O [Example 19-I, (R)-3-methyl-5-(5-((2-(4-methyl-1-oxo-1,3-dihydroisobenzofuran-5-yl)morpholino)methyl)thiazol-2-yl)benzo[d]oxazol-2(3H)-one]	180
Cc1c([C@@H]2CN(C(=O)c3cnc(-c4ccc5oc(=O)n(C)c5c4)s3)CCO2)ccc2c1COC2=O [Example 20-I, (R)-3-methyl-5-(5-(2-(4-methyl-1-oxo-1,3-dihydroisobenzofuran-5-yl)morpholine-4-carbonyl)thiazol-2-yl)benzo[d]oxazol-2(3H)-one]	490
COC(=O)N1CCN(Cc2cnn(-c3cc(C)c(C#N)cn3)c2)C[C@H]1c1ccc2c(c1C)COC2=O [Example 24-I, Methyl (R)-4-((1-(5-cyano-4-methylpyridin-2-yl)-1H-pyrazol-4-yl)methyl)-2-(4-methyl-1-oxo-1,3-dihydroisobenzofuran-5-yl)piperazine-1-carboxylate]	500
Cc1c([C@@H]2CN(Cc3cn(-c4ccc5oc(=O)n(C)c5c4)cn3)CCO2)ccc2c1COC2=O [Example 29-I, (R)-3-methyl-5-(4-((2-(4-methyl-1-oxo-1,3-dihydroisobenzofuran-5-yl)morpholino)methyl)-1H-imidazol-1-yl) benzo[d]oxazol-2(3H)-one]	120
Cc1cc(-c2nnc(CN3CCO[C@H](c4ccc5c(c4C)COC5=O)C3)o2)ncc1C#N [Example 30-I, (R)-4-methyl-6-(5-((2-(4-methyl-1-oxo-1,3-dihydroisobenzofuran-5-yl)morpholino)methyl)-1,3,4-oxadiazol-2-yl) nicotinonitrile]	260
Cc1cc(-n2cc(CCN3CCO[C@H](c4ccc5c(c4C)COC5=O)C3)cn2)ncc1C#N [Example 31-I, (R)-4-methyl-6-(4-(2-(2-(4-methyl-1-oxo-1,3-dihydroisobenzofuran-5-yl)morpholino)ethyl)-1H-pyrazol-1-yl) nicotinonitrile]	190
Cc1cc(-c2ncc(C(=O)N3CCO[C@H](c4ccc5c(c4C)COC5=O)C3)s2)ncc1C#N [Example 33-I, (R)-4-methyl-6-(5-(2-(4-methyl-1-oxo-1,3-di-hydroisobenzofuran-5-yl)morpholine-4-carbonyl)thiazol-2-yl) nicotinonitrile]	690
COc1cc(-c2ncc(C(=O)N3CCO[C@H](c4ccc5c(c4C)COC5=O)C3)s2)ncc1C#N [Example 34-I, (R)-4-methoxy-6-(5-(2-(4-methyl-1-oxo-1,3-dihydroisobenzofuran-5-yl)morpholine-4-carbonyl)thiazol-2-yl) nicotinonitrile]	190
Cc1cn(-c2ncc(CN3CCO[C@H](c4ccc5c(c4C)COC5=O)C3)s2)cn1 [Example 36-I, (R)-4-methyl-5-(4-((2-(4-methyl-1H-imidazol-1-yl)thiazol-5-yl)methyl)morpholin-2-yl)iso-benzofuran-1(3H)-one]	680
Cc1c([C@@H]2CN(Cc3cnn(-c4ccsc4)c3)CCO2)ccc2c1COC2=O [Example 38-I, (R)-4-methyl-5-(4-((1-(thiophen-3-yl)-1H-pyrazol-4-yl)methyl)morpholin-2-yl)isobenzo-furan-1(3H)-one]	3400
Cc1c([C@@H]2CN(Cc3cnn(-c4cnccn4)c3)CCO2)ccc2c1COC2=O [Example 39-I, (R)-4-methyl-5-(4-((1-(pyrazin-2-yl)-1H-pyrazol-4-yl)methyl)morpholin-2-yl)isobenzo-furan-1(3H)-one]	770
Cc1cncc(-n2cc(CN3CCO[C@H](c4ccc5c(c4C)COC5=O)C3)cn2)n1 [Example 41-I, (R)-4-methyl-5-(4-((1-(6-methylpyrazin-2-yl)-1H-pyrazol-4-yl)methyl)morpholin-2-yl) isobenzofuran-1(3H)-one]	980
Cc1c([C@@H]2CN(Cc3cnn(-c4cncc(C#N)c4)c3)CCO2)ccc2c1COC2=O [Example 42-I, (R)-5-(4-((2-(4-methyl-1-oxo-1,3-dihydroiso-benzofuran-5-yl)morpholino)methyl)-1H-pyrazol-1-yl)nicotinonitrile]	490
